Reference: patent US12582677B2, “Methods for producing retinal tissue and retina-related cell” (SUMITOMO CHEMICAL COMPANY, LIMITED, priority 2011, dated 2026)

Experiments:
Assay type in all cases: cell-based
[1] = test system: RAX::GFP knock-in human ES cells; test: Production of retinal tissue from human ES cell aggregates: GFP-expressing (retinal progenitor) cells by fluorescence microscopy and FACS
Method: RAX::GFP knock-in human ES cells (derived from KhES-1) were cultured according to the methods described in “Ueno, M. et al. PNAS 2006”, “Watanabe, K. et al. Nat Biotech 2007” and used for the experiment. As the medium, DMEM/F12 medium (Invitrogen) added with 20% KSR (Knockout Serum Replacement; Invitrogen), 0.1 mM 2-mercaptoethanol, 1 mM pyruvic acid, and 5 to 10 ng/ml bFGF was used. The ES cells were dispersed into single cells by using 0.25% trypsin-EDTA (Invitrogen), and floating-cultured in a serum-free medium (100 μl) at 37° C., 5% CO2 to 9×10^3 cells per well of a non-cell adhesive 96-well culture plate (SUMILON spheroid plate, SUMITOMO BAKELITE CO., LTD.). As the serum-free medium in this case, a serum-free medium obtained by adding 20% KSR, 0.1 mM 2-mercaptoethanol, 1 mM pyruvic acid and 20 μM Y27632 to G-MEM medium was used. During the floating culture, Matrigel in an amount of 1/100 per volume was added from day 2 from the start of the floating culture. Thereafter, fluorescence microscopic observation was regularly performed while continuing the floating culture.
RAX::GFP knock-in human ES cells (derived from KhES-1) were cultured according to the methods described in “Ueno, M. et al. PNAS 2006”, “Watanabe, K. et al. Nat Biotech 2007” and used for the experiment. As the medium, DMEM/F12 medium (Invitrogen) added with 20% KSR (Knockout Serum Replacement; Invitrogen), 0.1 mM 2-mercaptoethanol, 1 mM pyruvic acid, and 5-10 ng/ml bFGF was used. For the production of retinal tissue by floating culture, the ES cells were dissociated into single cells by using 0.25% trypsin-EDTA (Invitrogen), and floating-cultured in a serum-free medium (100 μl) at 37° C., 5% CO2 to 9×10^3 cells per well of a non-cell adhesive 96-well culture plate (SUMILON spheroid plate, SUMITOMO BAKELITE CO., LTD.). As the serum-free medium in this case, a serum-free medium obtained by adding 20% KSR, 0.1 mM 2-mercaptoethanol, 1 mM pyruvic acid, 20 μM Y27632 and a substance inhibiting the Nodal signal pathway (10 μM SB431542) to G-MEM medium was used. During the floating culture, Matrigel in an amount of 1/100 per volume was added from day 2 from the start of the floating culture. Thereafter, the floating culture was continued and fluorescence microscopic observation and confirmation of the proportion of the GFP-expressing cells were performed by FACS on day 18 from the start of the floating culture.
RAX::GFP knock-in human ES cells (derived from KhES-1) were cultured according to the methods described in “Ueno, M. et al. PNAS 2006”, “Watanabe, K. et al. Nat Biotech 2007” and used for the experiment. As the medium, DMEM/F12 medium (Invitrogen) added with 20% KSR (Knockout Serum Replacement; Invitrogen), 0.1 mM 2-mercaptoethanol, 1 mM pyruvic acid, and 5 to 10 ng/ml bFGF was used. For the production of retinal tissue by floating culture, the ES cells were dispersed into single cells by using 0.25% trypsin-EDTA (Invitrogen), and floating-cultured in a serum-free medium (100 μl) at 37° C., 5% CO2 to 9×10^3 cells per well of a non-cell adhesive 96-well culture plate (SUMILON spheroid plate, SUMITOMO BAKELITE CO., LTD.). As the serum-free medium in this case, a serum-free medium obtained by adding 20% KSR, 0.1 mM 2-mercaptoethanol, 1 mM pyruvic acid, 20 μM Y27632 and a substance inhibiting the Wnt signal pathway (3 μM IWR1e) to G-MEM medium was used. During the floating culture, Matrigel in an amount of 1/100 per volume was added from day 2 from the start of the floating culture. Thereafter, the floating culture was continued and fluorescence microscopic observation and confirmation of the proportion of the GFP-expressing cells were performed by FACS on day 18 from the start of the floating culture.
RAX::GFP knock-in human ES cells (derived from KhES-1) were cultured according to the methods described in “Ueno, M. et al. PNAS 2006”, “Watanabe, K. et al. Nat Biotech 2007” and used for the experiment. […]

[2] = test system: RAX::GFP knock-in human ES cells; test: Production of optic-cup-like structure from human ES cell aggregates; settings: 3 μM CHIR99021 and 100 nM SAG together in serum-containing medium from day 15
Method: RAX::GFP knock-in human ES cells (derived from KhES-1) were cultured according to the methods described in “Ueno, M. et al. PNAS 2006”, “Watanabe, K. et al. Nat Biotech 2007” and used for the experiment. As the medium, DMEM/F12 medium (Invitrogen) added with 20% KSR (Knockout Serum Replacement; Invitrogen), 0.1 mM 2-mercaptoethanol, 1 mM pyruvic acid, and 5 to 10 ng/ml bFGF was used. For the formation of aggregate by floating culture, the ES cells were dispersed into single cells by using 0.25% trypsin-EDTA (Invitrogen), suspended in a serum-free medium (100 μl) to 9×10^3 cells per well of a non-cell adhesive 96-well culture plate (SUMILON spheroid plate, SUMITOMO BAKELITE CO., LTD.) to allow for rapid formation of aggregates, and floating cultured at 37° C., 5% CO2. As the serum-free medium in this case, a serum-free medium obtained by adding 20% KSR, 0.1 mM 2-mercaptoethanol, 1 mM pyruvic acid, 20 μM Y27632 and a substance inhibiting the Wnt signal pathway (3 μM IWR1e) to G-MEM medium was used. During the floating culture, Matrigel in an amount of 1/100 per volume was added from day 2 from the start of the floating culture. The floating aggregate was transferred to a serum-free medium without a substance inhibiting the Wnt signal pathway on day 12 from the start of the floating culture, fetal calf serum in an amount of 1/10 per volume was added and the aggregate was cultured. […]

[3] = test system: Crx::GFP knock-in human ES cell-derived retinal tissue; test: Treatment of human ES cell-derived retinal tissue with DAPT: GFP fluorescence, Recoverin and Brn3 immunostaining; settings: 10 μM DAPT added day 29
Method: CrX::GFP knock-in human ES cells (derived from KhES-1) were cultured according to the methods described in “Ueno, M. et al. PNAS 2006”, “Watanabe, K. et al. Nat Biotech 2007” and used for the experiment. As the medium, DMEM/F12 medium (Invitrogen) added with 20% KSR (Knockout Serum Replacement; Invitrogen), 0.1 mM 2-mercaptoethanol, 1 mM pyruvic acid, and 5 to 10 ng/ml bFGF was used. The ES cells were dispersed into single cells by using 0.25% trypsin-EDTA (Invitrogen), and floating-cultured in a serum-free medium (100 μl) at 37° C., 5% CO2 to 9×10^3 cells per well of a non-cell adhesive 96-well culture plate (SUMILON spheroid plate, SUMITOMO BAKELITE CO., LTD.). As the serum-free medium in this case, a serum-free medium obtained by adding 20% KSR, 0.1 mM 2-mercaptoethanol, 1 mM pyruvic acid, 20 μM Y27632 and a substance inhibiting the Wnt signal pathway (3 μM IWR1e) to G-MEM medium was used. Matrigel was added in an amount of 1/100 per volume from day 2 of the floating culture and floating culture was performed. Fetal calf serum in an amount of 1/10 per volume and a substance acting on the Shh signal pathway (100 nM SAG) were added on day 12 of floating culture and the floating culture was performed to produce a retinal tissue. A substance acting on the Notch signal (10 μM DAPT (gamma secretase activity inhibitor)) was added to the retinal tissue on day 29 from the start of the floating culture, observed with a fluorescence microscope on day 41 from the start of the floating culture (day 12 after the addition), and fixed with 4% para-formaldehyde on day 43 from the start of the floating culture (day 14 after the addition), and a frozen section was prepared. The prepared frozen section was immunostained for Recoverin, which is one of the marker genes of photoreceptor, and Brn3, which is one of the marker genes of ganglion cells, and the results were compared between the presence and absence of DAPT-addition.

[4] = test system: human ES cell-derived retinal tissue after freeze-thawing; test: Treatment of human ES cell-derived retinal tissue after freeze-thawing with DAPT: GFP fluorescence, Recoverin and Brn3 immunostaining; settings: tissue freeze-thawed day 33, 10 μM DAPT added day 38
Method: RAX::GFP knock-in human ES cells (derived from KhES-1) were cultured according to the methods described in “Ueno, M. et al. PNAS 2006”, “Watanabe, K. et al. Nat Biotech 2007” and used for the experiment. As the medium, DMEM/F12 medium (Invitrogen) added with 20% KSR (Knockout Serum Replacement; Invitrogen), 0.1 mM 2-mercaptoethanol, 1 mM pyruvic acid, and 5 to 10 ng/ml bFGF was used. For the production of retinal tissue by floating culture, the ES cells were dispersed into single cells by using 0.25% trypsin-EDTA (Invitrogen), and floating-cultured in a serum-free medium (100 μl) at 37° C., 5% CO2 to 9×10^3 cells per well of a non-cell adhesive 96-well culture plate (SUMILON spheroid plate, SUMITOMO BAKELITE CO., LTD.). As the serum-free medium in this case, a serum-free medium obtained by adding 20% KSR, 0.1 mM 2-mercaptoethanol, 1 mM pyruvic acid, 20 μM Y27632 and a substance inhibiting the Wnt signal pathway (3 μM IWR1e) to G-MEM medium was used. […] Matrigel was added in an amount of 1/100 per volume from day 2 of the floating culture and floating culture was performed. Fetal calf serum in an amount of 1/10 per volume and a substance acting on the Shh signal pathway (100 nM SAG) were added on day 12 from the start of the floating culture and the floating culture was performed to produce a retinal tissue. The produced retinal tissue on day 33 from the start of the floating culture was freeze-thawed, and a Notch signal action inhibitory substance (10 μM DAPT) was added to the retinal tissue on day 38 from the start of the floating culture. […] The prepared frozen section was immunostained for Recoverin, which is one of the marker genes of photoreceptor, and Brn3, which is one of the marker genes of ganglion cells, and the results were compared between the presence and absence of DAPT-addition.

[5] = 100 nM SAG and fetal calf serum 1/10 added day 12, with 3 μM IWR1e and Matrigel, day 18

## O=C(Nc1cccc2cccnc12)c1ccc(N2C(=O)[C@@H]3[C@H](C2=O)[C@@H]2C=C[C@H]3C2)cc1 [IWR1e]
[1]; 3 μM IWR1e in serum-free medium, Matrigel 1/100 from day 2, compared to Comparative Examples 1 and 2
  GFP-expressing cells (fluorescence microscopic observation): clearly increased
[1]; 3 μM IWR1e, Matrigel, no serum (Comparative Example 3), day 18 of floating culture
  proportion of the GFP-expressing cells (FACS): 3.2%

## CNC1CCC(N(Cc2cccc(-c3ccncc3)c2)C(=O)c2sc3ccccc3c2Cl)CC1 (stereo not shown) [SAG]
[1]; [5]
  GFP-expressing cells (fluorescence microscopic observation): a very high number of GFP-expressing cells emerged
  proportion of the GFP-expressing cells (FACS): not less than 70%
[1]; Example 2: serum and 100 nM SAG added simultaneously, with 3 μM IWR1e and Matrigel
  increase of proportion of GFP-expressing cells compared to Comparative Example 3: about 24 fold
[2]
  optic-cup-like structure formation on aggregate: a clear optic-cup-like structure was formed

## NC(=O)c1ccc(-c2nc(-c3ccc4c(c3)OCO4)c(-c3ccccn3)[nH]2)cc1 [SB431542]
[1]; 10 μM SB431542 in serum-free medium, Matrigel 1/100 from day 2
  GFP-expressing cells (fluorescence microscopic observation): somewhat found

## C[C@H](NC(=O)Cc1cc(F)cc(F)c1)C(=O)N[C@H](C(=O)OC(C)(C)C)c1ccccc1 [DAPT, N-[N-(3,5-difluorophenacetyl)-L-alanyl]-S-phenylglycine t-butyl ester]
[3]; fixed day 43
  ganglion cells (immunostaining of Brn3): increased
  increase of Recoverin-positive cells (immunostaining of frozen section): 3- to 5 fold
[3]; observed day 41
  GFP-expressing cells (fluorescence microscope) compared to no DAPT: markedly increased
[4]; day 49
  Recoverin-positive cells produced (immunostaining of frozen section): about 5 fold
  ganglion cells (immunostaining of Brn3): produced
[4]; observed day 49
  GFP-expressing cells (fluorescence microscope) compared to no DAPT: markedly produced
